Results: patent publication US20070032453A1, “ADJUVANT CHEMOTHERAPY FOR ANAPLASTIC GLIOMAS” (Oklahoma Medical Research Foundation, priority 2005, published 2007)
Entries after “also recorded” stand apart in the source; their conditions may differ.

Tests used:
[1] = test system: C6 gliomas; assay: C6 glioma growth in rats monitored by T2-weighted MRI (tumor volumes, ImageJ); type: in vivo, rat
Experimental: (§1) Cells injection. Three-month-old male Fischer 344 rats (250-350 g) were fed a choline-deficient diet. Each animal was anesthetized (3% isoflurane at 2.5 L/mn oxygen) and placed on a stereotaxic device (Stoelting, USA). The skin of the head was cleaned and incised. A hole was drilled through the skull 2 mm anterior and 2 mm lateral to the bregma, in the right-hand side of the skull. C6, 9L/LacZ or F98 cells (10^6 in 10 μL cell culture media) in a ultra-low gelling temperature agarose are injected in the cortex at a 3 mm-depth at a rate of 2 μL/mn. A waiting time of 2 min was implemented following injection and bone wax was put in the burr-hole to prevent any reflux. The wound was sutured and covered with surgical glue. The surgery was performed in sterile conditions. The syringes containing the C6, 9L/LacZ or F98 cells are kept at 37° C. until the moment of use.
PBN treatment. […] The treatment was continuous and was started at different time points. […] Some rats were not treated and served as controls (n=5).
MRI experiments. MRI experiments were performed on a 7 Tesla-30 cm horizontal bore magnet (Bruker BioSpin MRI Gmbh, Germany) at day 6-10 after the cells were injected and then every 2-3 days until the death of the rat. The animal was anesthetized (1.5% isoflurane at 1.5 L/mn oxygen) and placed in a MR probe (Bruker BioSpin MRI Gmbh, Germany). A head coil (Bruker BioSpin MRI Gmbh, Germany) was put on its head and the brain was localized.
(§2) Tumor growth monitoring. T1/T2-weighted images were obtained by a double-echo multi-slice spin echo method. Twenty-four axial slices of 1 mm thickness with an interslice distance of 1 mm were taken with a repetition time of 2369.64 ms and echo times of 17.41 ms and 63.85 ms for an acquisition time of 20 min. Tumor volumes were determined with the software ImageJ 1.32j (NIH, USA).
A T2-weighted morphological MRI method was used.

[2] = test system: F98 gliomas; assay: F98 glioma growth in rats monitored by T2-weighted MRI; type: in vivo, rat; conditions: PBN five days prior to intracerebral cell implantation
Experimental: as §1, §2

[3] = test system: C6 gliomas; assay: MR angiography of C6 gliomas (angiogenesis, arterial blood volumes); type: in vivo, rat
Experimental: Angiography. Coronal slices are acquired by a FLASH (fast low angle shot) method with a volume of interest of 2.7×1.7×1.2 cm^3, an echo time of 2.3 ms, a repetition time of 25 ms and a flip angle of 25° for an acquisition time of 27 min. A MIP (maximum intensity projection) technique was then applied to the data to obtain a 3D-angiography. Angiography was used to visualize new blood vessel formation, i.e., angiogenesis.
The method used was quantitative analysis (using a Mathematica-based program developed in our laboratory) of arterial signal intensities from in vivo MR angiography data. Glioma region arterial blood volumes were compared to blood volumes in the contralateral control cerebral hemisphere.

[4] = test system: C6 gliomas; assay: Image-guided MR spectroscopy, metabolite ratios in C6 glioma; type: in vivo, rat; conditions: C6 glioma rats treated with PBN
Experimental: MRS experiments. Water suppression was performed by a CHESS (chemical shift suppression) method. A spectrum was acquired in a […] voxel in the tumor region and in the contralateral control side of the brain, by using PRESS (point resolved spectroscopy) with a repetition time of 3000 ms, an echo time of 21.34 ms for an acquisition time of 13 min. An outer volume suppression tool was used to get rid of the 5 mm thick surrounding signal around the voxel. The metabolite peaks were assigned as follows, based on previous literature (Fan et al., 2004; Griffin et al., 2003): NAA at 2.02 ppm, Cr at 3.03 ppm, Cho at 3.25 ppm and mobile lipids at 1.33 ppm (methylene group) and 0.9 ppm (methyl group). Peak areas were calculated in reference to Cr peak and relative ratios were determined: NAA/Cho, NAA/Cr, Cho/Cr and Lipids/Cr. A decrease in NAA levels and an increase in lipids are indicative of the presence of a glioma (Ishimaru et al., 2001).
MR spectral peak areas were measured using the Bruker XWIN NMR peak intragration software package.

[5] = test system: C6 gliomas; assay: Histology (H&E) of C6 glioma rat brain; type: in vivo; conditions: C6 rat glioma treated with PBN
Source text: Note that PBN-treated C6 glioma rat brain has neuronal cells that appear similar to control rat brain. Untreated C6 glioma depicts malignant cells that are atypical in appearance (grade II to III) with few mitotic and apoptotic figures being present.
Conclusion. […] The malignant cells in the large neoplastic mass (FIG. 8B) were moderately atypical in appearance (grade II to III) with few mitotic and apoptotic figures being present. Large central areas of the mass […]) were also necrotic.

[6] = test system: C6 gliomas; assay: Survival of rats with intracerebral C6 glioma; type: in vivo, rat
Source text: FIG. 11—Anti-Glioma Therapy/Percent Survival. […] Based on survival data obtained from FIG. 10.

[7] = test system: HIF-1α; assay: IGF-1 induced HIF-1α expression in HCT-116 cells; type: cell-based; conditions: HCT116 human colon cancer cells, 20% O2
Source text: (§3) The band densities of HIF-1α were normalized by the bands of CoCl2 which was used as the positive control.
(§4) HIF-1α is a major transactivation factor which is central to the induction of VEGF as well as iNOS and many other genes very important in the development of cancer. VEGF is very important in angiogenesis essential for tumor growth and is a major target of several anti-cancer companies.

[8] = test system: HIF-1α; assay: IGF-1 induced HIF-1α expression in Hepa 1-6 cells; type: cell-based; conditions: mouse hepatocellular carcinoma cell line (Hepa 1-6)
Source text: as §3, §4

[9] = target: c-MET (Homo sapiens, UniProt P08581); assay: c-MET inhibition
[10] = cited from earlier work
[11] = PBN started 5 days before surgery

c-MET, sequence (P08581 25-1390): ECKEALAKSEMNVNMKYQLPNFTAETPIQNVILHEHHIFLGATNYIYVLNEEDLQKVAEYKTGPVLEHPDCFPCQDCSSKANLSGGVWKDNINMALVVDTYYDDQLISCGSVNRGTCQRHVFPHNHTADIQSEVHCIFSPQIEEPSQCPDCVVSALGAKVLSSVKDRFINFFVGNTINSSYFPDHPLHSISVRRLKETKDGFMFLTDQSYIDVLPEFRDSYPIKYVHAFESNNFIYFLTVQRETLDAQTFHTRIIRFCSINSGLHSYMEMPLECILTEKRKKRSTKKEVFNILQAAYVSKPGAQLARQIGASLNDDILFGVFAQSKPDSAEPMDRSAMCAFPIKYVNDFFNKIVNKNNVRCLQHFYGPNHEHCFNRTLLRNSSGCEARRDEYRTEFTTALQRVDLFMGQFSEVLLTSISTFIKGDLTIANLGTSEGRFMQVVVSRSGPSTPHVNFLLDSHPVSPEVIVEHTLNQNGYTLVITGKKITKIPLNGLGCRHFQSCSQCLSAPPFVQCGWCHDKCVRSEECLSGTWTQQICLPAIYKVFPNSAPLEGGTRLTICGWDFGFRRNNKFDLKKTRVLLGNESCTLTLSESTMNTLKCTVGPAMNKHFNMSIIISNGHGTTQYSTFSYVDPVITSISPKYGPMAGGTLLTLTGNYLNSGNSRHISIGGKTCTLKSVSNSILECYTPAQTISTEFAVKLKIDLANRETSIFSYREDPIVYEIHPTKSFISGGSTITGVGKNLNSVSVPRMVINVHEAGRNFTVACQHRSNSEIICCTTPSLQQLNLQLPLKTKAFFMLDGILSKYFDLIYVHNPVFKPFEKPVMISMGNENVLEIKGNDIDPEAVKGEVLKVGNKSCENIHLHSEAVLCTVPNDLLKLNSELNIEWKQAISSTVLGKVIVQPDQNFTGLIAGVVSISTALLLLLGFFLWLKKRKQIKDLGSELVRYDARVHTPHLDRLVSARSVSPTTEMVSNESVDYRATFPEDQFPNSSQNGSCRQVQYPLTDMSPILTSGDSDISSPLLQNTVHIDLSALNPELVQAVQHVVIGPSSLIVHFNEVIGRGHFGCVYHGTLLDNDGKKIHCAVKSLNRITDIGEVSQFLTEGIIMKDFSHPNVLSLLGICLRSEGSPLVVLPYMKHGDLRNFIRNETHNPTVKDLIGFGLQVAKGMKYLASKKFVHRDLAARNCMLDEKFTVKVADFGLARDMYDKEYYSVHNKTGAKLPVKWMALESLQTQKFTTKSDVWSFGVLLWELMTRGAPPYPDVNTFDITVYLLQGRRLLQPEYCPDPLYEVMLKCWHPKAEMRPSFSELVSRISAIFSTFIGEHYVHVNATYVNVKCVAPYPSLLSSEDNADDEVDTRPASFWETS

Structure (SMILES): CC(C)(C)[N+]([O-])=Cc1ccccc1 [PBN, phenyl N-tert-butyl nitrone]
- doubling time ([1]; PBN 75 mg/kg/day in drinking water started on the day of surgery or 5 days after): 2.3 to 2.4 days
- doubling time [1, 11]: 4.1 days
- maximum tumor volume [1, 11]: 50 mm^3
- tumor course after maximal volume ([1]; PBN started on the day of surgery or 5 days after): the tumor starts to regress until it almost completely disappears
- animals with recession of tumor / eradication of further tumor formation ([1]; PBN starting 14 days after cell implantation, tumors >50 mm3): 40%
- glioma growth outcome ([1]; continuous PBN starting 5 days prior to cell implantation, n=5): recession to no tumor in all animals studied; also recorded: either not develop or recede once intially formed in all rats
- glioma development [2]: not develop in all rats
- normalized tumor arterial blood volumes ([3]; C6 glioma, PBN 5 days prior to cell implantation, quantitative MR angiography): suppression and/or a decrease in blood volumes
- changes in angiogenesis (angiograms) ([3]; C6 gliomas, Example 2, qualitative MR angiography): did not seem to induce changes in angiogenesis
- NAA levels compared to choline (Cho) levels [4]: increase to normal levels
- lipid levels compared to creatine (Cr) levels [4]: decrease to normal levels
- histology (H&E), tumor cells [5]: no evidence of tumor cells
- rats surviving longer than 40 days (study end-point) ([6]; PBN 5 days prior to C6 cell implantation): Eighty
- rats surviving longer than 40 days ([6]; PBN 14 days after C6 cell implantation): 40%
- induction of HIF-1α [7]: inhibits the induction of HIF-1α
- induction of HIF-1α [8]: inhibits the induction of HIF-1α
- c-MET inhibition [9]: inhibits c-MET
- tissue distribution ([10]; rat, in vivo): readily and rapidly distributed almost equally to all tissues
- half-life ([10]; rats): about 132 minutes

Structure (SMILES): CC(C)(C)[N+]([O-])=Cc1ccc(O)cc1 [4-hydroxy-PBN, 4-hydroxyphenyl N-tert-butylnitrone]
- animals with suppressed and recessed tumor growth ([1]; 75 mg/kg/day in drinking water from 5 days prior to implantation, n=5): 40%
- animals with decrease in tumor growth and angiogenesis ([3]; C6 gliomas, morphology and angiography data): 2 of 5
